Reference: US20050100529A1, “Methods of using and compositions comprising immunomodulatory compounds for the treatment and management of asbestos-related diseases and disorders” (priority 2003, published 2005)

What was measured:
TNF-α [1] = test: Inhibition of TNF-α production following LPS-stimulation of human PBMC; assay type: cell-based; conditions: for IC50: human PBMC, LPS-stimulated, in vitro, read-out: IC50 for inhibiting production of TNF-α following LPS-stimulation of PBMC
From the text: (§1) In a specific embodiment, inhibitions of TNF-α production following LPS-stimulation of human PBMC and human whole blood by 3-(4-amino-1-oxo-1,3-dihydro-isoindol-2-yl)-piperidine-2,6-dione, 4-(amino)-2-(2,6-dioxo-(3-piperidyl))-isoindoline-1,3-dione or thalidomide were investigated in vitro.

TNF-α [2] = test: Inhibition of TNF-α production following LPS-stimulation of human whole blood; assay type: cell-based; conditions: LPS-stimulated, in vitro, read-out: IC50 for inhibiting production of TNF-α following LPS-stimulation of human whole blood
From the text: as §1

IL1β = test: LPS-stimulated production of IL1β by PBMC; assay type: cell-based
IL6 = test: LPS-stimulated production of IL6 by PBMC; assay type: cell-based
IL10 = test: LPS-stimulated production of IL10 by PBMC; assay type: cell-based
[3] = crystalline polymorph of 3-(4-amino-1-oxo-1,3 dihydro-isoindol-2-yl)-piperidine-2,6-dione; cited from earlier work
[4] = solvent systems, humidity or heating as worded; cited from earlier work
mesothelioma patients = test: Clinical studies in unresectable or relapsed mesothelioma patients; assay type: in vivo, human; conditions: 10 mg as a continuous oral daily dose
Protocol: Clinical trials with the administration of an immunomodulatory compound in an amount of from about 1 mg to about 1,000 mg, from about 1 mg to about 500 mg, or from about 1 mg to about 250 mg per day are conducted in patients with asbestosis, malignant mesothelioma, or malignant pleural effusion mesothelioma syndrome. In a specific embodiment, patients receive about 1 mg to about 150 mg/day of 3-(4-amino-1-oxo-1,3-dihydro-isoindol-2-yl)-piperidine-2,6-dione alone or in combination with vinorelbine. Patients who experience clinical benefit are permitted to continue on treatment.
Other clinical studies are performed using 3-(4-amino-1-oxo-1,3-dihydro-isoindol-2-yl)-piperidine-2,6-dione in unresectable or relapsed mesothelioma patients that have not responded to conventional therapy. In one embodiment, 3-(4-amino-1-oxo-1,3-dihydro-isoindol-2-yl)-piperidine-2,6-dione is administered in an amount of about 1 mg to about 150 mg/day to the patients. Treatment with 10 mg as a continuous oral daily dose is well-tolerated.

In the case of `Nc1cccc2c1C(=O)N(C1CCC(=O)NC1=O)C2=O` (stereo not drawn) [4-(amino)-2-(2,6-dioxo(3-piperidyl))-isoindoline-1,3-dione], the “Effect on LPS-stimulated production of TNF-α by PBMC” value (TNF-α [1]) is reported as “dose-dependent inhibition”, the IC50 (TNF-α [1]) is reported as roughly 24 nM and the IC50 (TNF-α [1]; same value in mass units) is reported as roughly 0.00655 µg/mL. The IC50 (TNF-α [2]) was roughly 25 nM, the IC50 (TNF-α [2]; same value in mass units) was roughly 0.00683 µg/mL and the “Effect on LPS-stimulated production of IL1β by PBMC” value (IL1β) was “dose-dependent inhibition”. The “Effect on LPS-stimulated production of IL6 by PBMC” value (IL6) was “dose-dependent inhibition” and the “Effect on production of the anti-inflammatory cytokine IL10” value (IL10) was “increased production”.

In the case of `Nc1cccc2c1CN(C1CCC(=O)NC1=O)C2=O` (stereo not drawn) [Form D, 3-(4-amino-1-oxo-1,3 dihydro-isoindol-2-yl)-piperidene-2,6-dione], the Hygroscopicity [3] is given as “either weakly or not hygroscopic” and the “Stability / interconversion of the polymorphic form” value (“Stability / interconversion” below) [4] is given as “convert to Form B when stressed at higher relative humidities”.

With `Nc1cccc2c1CN(C1CCC(=O)NC1=O)C2=O` (stereo not drawn) [3-(4-amino-1-oxo-1,3-dihydro-isoindol-2-yl)-piperidine-2,6-dione] the “Effect on LPS-stimulated production of TNF-α by PBMC” value (TNF-α [1]) was “dose-dependent inhibition”, the IC50 (TNF-α [1]) was roughly 100 nM and the IC50 (TNF-α [1]; same value in mass units) was roughly 0.0259 µg/mL. For the same compound, the IC50 (TNF-α [2]) was roughly 480 nM, the IC50 (TNF-α [2]; same value in mass units) was roughly 0.104 µg/mL and the “Effect on LPS-stimulated production of IL1β by PBMC” value (IL1β) was “dose-dependent inhibition”. The “Effect on LPS-stimulated production of IL6 by PBMC” value (IL6) was “dose-dependent inhibition”, the “Effect on production of the anti-inflammatory cytokine IL10” value (IL10) was “increased production” and the Tolerability (mesothelioma patients) was “well-tolerated”.

In the case of `Nc1cccc2c1CN(C1CCC(=O)NC1=O)C2=O` (stereo not drawn) [Form B, 3-(4-amino-1-oxo-1,3 dihydro-isoindol-2-yl)-piperidene-2,6-dione], the “Stability / interconversion” value [4] is given as “converts to Form E in aqueous solvent systems”.

For `Nc1cccc2c1CN(C1CCC(=O)NC1=O)C2=O` (stereo not drawn) [Form E, 3-(4-amino-1-oxo-1,3 dihydro-isoindol-2-yl)-piperidene-2,6-dione], the “Stability / interconversion” value [4] is given as “In aqueous solvent systems, Form E appears to be the most stable form”.

For `Nc1cccc2c1CN(C1CCC(=O)NC1=O)C2=O` (stereo not drawn) [Form A, 3-(4-amino-1-oxo-1,3 dihydro-isoindol-2-yl)-piperidene-2,6-dione], the Hygroscopicity [3] is listed as “weakly or not hygroscopic” and the “Stability / interconversion” value [4] is listed as “most thermodynamically stable anhydrous polymorph”.

For `Nc1cccc2c1CN(C1CCC(=O)NC1=O)C2=O` (stereo not drawn) [Form C, 3-(4-amino-1-oxo-1,3 dihydro-isoindol-2-yl)-piperidene-2,6-dione], the Hygroscopicity [3] is listed as “not hygroscopic below about 85% RH” and the “Stability / interconversion” value [4] is listed as “can convert to Form B at higher relative humidities”.

Work on `O=C1CCC(N2C(=O)c3ccccc3C2=O)C(=O)N1` (racemic) [Thalidomide, thalidomide, reference compound] yielded an IC50 (TNF-α [1]) of roughly 194000 nM and an IC50 (TNF-α [1]; same value in mass units) of roughly 50.1 µg/mL.
